According to the NIST ThermoML archive (doi:10.1021/je400970y):
± gives the expanded uncertainty stated by the source.

Settings: Liquid, Closed cell (Static) method

CC(F)(Cl)C(F)(F)F (stereo not given) [2-chloro-1,1,1,2-tetrafluoropropane]
Settings | vapor or sublimation pressure [kPa]
268.19 K | 49.7 ± 3
270.19 K | 54.4 ± 3
273.18 K | 60.5 ± 3
275.18 K | 66.4 ± 3
278.16 K | 74.3 ± 3
281.15 K | 83.9 ± 3
283.12 K | 88.9 ± 3
286.13 K | 100.5 ± 3
288.11 K | 106.5 ± 3
290.12 K | 116 ± 3
292.13 K | 124.6 ± 3
295.09 K | 138.2 ± 3
298.12 K | 151.8 ± 3
300.09 K | 163.5 ± 3
302.11 K | 175.3 ± 3
304.25 K | 185.9 ± 3
307.02 K | 203.2 ± 3
308.9 K | 215.2 ± 3
310.68 K | 227.6 ± 3
313.35 K | 247.9 ± 3
315.28 K | 261.8 ± 3
318.34 K | 286.5 ± 3.1
320.84 K | 307.9 ± 3.1
324.02 K | 334.9 ± 3.1
325.63 K | 351.9 ± 3.1
328.81 K | 382.6 ± 3.1
330.46 K | 401.6 ± 3.1
333.63 K | 435.9 ± 3.1
335.25 K | 456.6 ± 3.1
338.51 K | 495.5 ± 3.1
339.67 K | 510.3 ± 3.1
341.68 K | 536.4 ± 3.2
343.28 K | 559.6 ± 3.2
345.27 K | 588.1 ± 3.2
347.07 K | 615.8 ± 3.2
349.07 K | 645.9 ± 3.2

C=C(F)C(F)(F)F [2,3,3,3-tetrafluoro-1-propene]
Settings | vapor or sublimation pressure [kPa]
248.17 K | 123.1 ± 3
251.18 K | 138.8 ± 3
254.21 K | 156.9 ± 3
258.2 K | 184.3 ± 3
260.18 K | 198.3 ± 3
262.18 K | 213.8 ± 3
264.2 K | 229.9 ± 3
266.25 K | 248.1 ± 3
270.26 K | 286 ± 3.1
271.16 K | 295.3 ± 3.1
273.21 K | 316.5 ± 3.1
275.22 K | 338.2 ± 3.1
277.22 K | 361.5 ± 3.1
279.14 K | 385.1 ± 3.1
281.23 K | 411.4 ± 3.1
285.18 K | 466.2 ± 3.1
287.22 K | 496.4 ± 3.1
289.22 K | 526.7 ± 3.2
291.22 K | 558.8 ± 3.2
293.25 K | 593.4 ± 3.2
295.25 K | 627.9 ± 3.2
297.55 K | 672.2 ± 3.2
299.19 K | 703 ± 3.3
301.32 K | 746.2 ± 3.3
303.25 K | 786.5 ± 3.3
305.11 K | 825.8 ± 3.3
306.31 K | 852.9 ± 3.4
309.51 K | 927.9 ± 3.4
311.49 K | 976.6 ± 3.5
313.43 K | 1026.2 ± 3.5
315.55 K | 1082.8 ± 3.5
317.23 K | 1128.4 ± 3.6
319.14 K | 1182.9 ± 3.6
321.02 K | 1237.8 ± 3.7
323.79 K | 1322.3 ± 3.8
325.56 K | 1380 ± 3.8
326.82 K | 1420.8 ± 3.9
328.86 K | 1490.2 ± 3.9
330.87 K | 1560.1 ± 4
332.97 K | 1635.8 ± 4.1
334.99 K | 1711.2 ± 4.2
336.99 K | 1788.7 ± 4.2
338.97 K | 1868.1 ± 4.3
341.06 K | 1955.5 ± 4.4
343.04 K | 2040.1 ± 4.5
345.05 K | 2129.1 ± 4.6
347.06 K | 2221.2 ± 4.7
349.05 K | 2315.9 ± 4.9
351.03 K | 2412.1 ± 5
353.08 K | 2516.4 ± 5.1
355.03 K | 2618.5 ± 5.2
357.23 K | 2738.3 ± 5.4
359.34 K | 2856.6 ± 5.5
361.05 K | 2955.2 ± 5.7
